Reference: patent publication US6852337B2, “Carvedilol-galenics” (Roche Diagnostics GmbH, priority 1998, dated 2005)

Experiment: In-vitro dissolution rate, USP XXII paddle method, aqueous buffer pH 4.5
Format: physicochemical
Description: In the case of drugs which cannot develop their action in the gastrointestinal zone itself, release from the drug form in the gastrointestinal tract and the subsequent resorption are the necessary condition for a therapeutic effect. Problems arise in this connection with those active substances which, because of their poor solubility or their low dissolution speed, attain so low a concentration in the gastrointestinal tract in the aqueous medium or because of obstructed release from the system of the other adjuvants, that the dissolution of the active substance is the step which determines the rate in connection with the resorption. […] The solubility and release rate are determined by standard methods, e.g. in accordance with the paddle method of USP XXII.
The in-vitro dissolution rates in this and the following examples were determined in accordance with USP XXII, paddle method in an aqueous buffer pH 4.5

In-vitro dissolution rate after 10 minutes	In-vitro dissolution rate after 20 minutes	In-vitro dissolution rate after 30 minutes	In-vitro dissolution rate after 60 minutes	SMILES
31%	43%	50%	58%	OC(COc1cccc2[nH]ccc12)CN1CCC(COc2ccccc2)CC1 (centres unmarked) [Active substance A, 4-[2-hydroxy-3-[4-(phenoxymethyl)piperidino]-propoxy]-indole]
36%	46%	49%	56%	COc1ccccc1OCCNCC(O)COc1cccc2[nH]c3ccccc3c12 (centres unmarked) [Active substance B, carvedilol]
